Laboratory results taken from PMC4411102 (PLoS ONE, 2015).

How the values were obtained:
HIV-1 IIIB [1] = experiment: Anti-HIV activity, p24 antigen assay in H9 cells; format: cell-based; set-up: key to Anti-HIV activity: +: moderate; ++: significant; NA: No activity; conditions: for Anti-HIV activity (in words): 0.1 MoI HIV-1 IIIB pre-incubated with peptide, H9 cells, p24 on day 4
Method: Supplementary file pone.0124839.s002.tif: S2 Fig Anti-HIV activity of 3 designed peptides. Anti HIV activity of three peptides was determined using H9 cells. H9 cells were infected for 4 hrs with 0.1 MoI of HIV-1 IIIB pre-incubated with various concentrations of peptides. Peptides were added post infection as well. Supernatant was collected on day 4 post infection, and p24 antigen assay was performed. […] (TIF) Click here for additional data file.
Supplementary file pone.0124839.s003.tif: S3 Fig Anti-HIV activity of peptide analogues of peptide 1. After modifying the peptide 1, we performed anti-HIV assay as earlier. HIV-1 IIIB was pre-incubated with peptide analogues for 1 hr and then added to H9 cells for 4 hrs. Levels of p24 levels were determined on day 4 post infection. […] (TIF) Click here for additional data file.

gp120 of HIV-1 IIIB = experiment: Binding ELISA, gp120 of HIV-1 IIIB; conditions: ELISA
Method: (§1) After blocking with 3% bovine serum albumin (BSA) in PBS for 30 min, 100 μl of gp120 (100ng/well) in PBS-0.05% BSA was added to each well and incubated for 2 hrs at 37°C. After three washings with PBS-Tween-20 (PBS-T), cells were incubated with anti-gp120 antibody at 1:200 dilution and then with horse radish peroxidase-(HRP) conjugated secondary goat anti-human antibody (1:10000 dilution) for 1 hr at 37°C. This was followed by incubation with O-phenylenediamine for 20 min. The absorbance was measured at 492 nm on a microplate ELISA reader (ELx-800, Bio-Tek Instruments, USA). Background values obtained in the wells without HbAHP-25 were subtracted from the absorbance values from wells having all other reagents.
Supplementary file pone.0124839.s001.tif: S1 Fig Binding of designed peptides to gp120. Peptides that were designed in silico were evaluated for their binding to gp120 of HIV-1 IIIB. Peptides were coated on 96 well microtiter plate for 16 hrs and then incubated with 500ng of gp120 for 2 hrs at 37°C. This was followed by addition of anti-gp120 antibody, and absorbance was read at 492nm. Background absorbance was subtracted from the wells where peptides were not coated. […] (TIF) Click here for additional data file.

gp120 of HIV-1 BaL = experiment: Binding ELISA, gp120 of HIV-1 BaL
Method: as §1

gp120 = gp120 (Human immunodeficiency virus type 1 group M subtype B, UniProt P04578); experiment: Surface plasmon resonance; format: binding, HIV-1
Method: Briefly, gp120 (20 μg/ml) was immobilized onto carboxymethylated dextran (CM5) surface based sensor chip by amine coupling method according to the manufacturer’s instructions. […] 10mM NaOH and 0.5% SDS were used to regenerate the sensor chip surface after each experimental cycle. The binding response in resonance units (RU) was recorded as a function of time. Non-specific binding was subtracted from the control flow cells without gp120. Binding kinetics was determined with BIA evaluation 4.1 software (BIAcore) using 1:1 Langmuir binding model.

[2] = tested on: HL2/3 cells expressing gp120; experiment: Flow cytometry, HL2/3 cells expressing gp120; format: binding; conditions: 35.7μM HbAHP-25, 1 hr at RT
Method: (§2) Cells were washed with same buffer twice and binding was evaluated using flow cytometer (BD Accuri C6, USA). The data was acquired and analyzed on BD Accuri software.

TZM-bl cells = experiment: Flow cytometry, TZM-bl cells (no gp120); format: binding; conditions: 35.7μM HbAHP-25, 1 hr at RT
Method: as §2

HeLa cells = experiment: Flow cytometry, HeLa cells (no gp120); format: binding; conditions: 35.7μM HbAHP-25, 1 hr at RT
Method: as §2

CD4 binding to gp120 = experiment: Competitive ELISA, CD4 binding to gp120; set-up: species or system HIV-1; conditions: gp120 pre-incubated with HbAHP-25 30 min, then CD4 1 hr
Method: 96 well microtiter plate was coated with soluble gp120 (1μg/well) from HIV-1 BaL and HIV-1 IIIB strains for 16 hrs at 4°C. […] Anti-CD4 monoclonal antibody (1:200) was added to the wells, followed by HRP-labeled goat anti-human secondary antibody (1:10000). Rest of the protocol followed was same as described above.

[3] = tested on: PBMCs, VK2/E6E7, TZM-bl, and CEM-GFP cells; experiment: MTT cytotoxicity assay; format: cell-based, human
Method: Briefly, PBMCs, VK2/E6E7, TZM-bl, and CEM-GFP cells (5x10^4 for 24 hr assay and 2x10^4 cells for 120 hr assay) were seeded in a 96-well microtiter plate 24 hrs prior to the treatment with peptides. Cells were treated with different concentrations of peptides (4.4–1142.4μM). MTT (10 μl of 1mg/ml) was added to each well, followed by addition of 100 μl of DMSO (Sigma-Aldrich) after 3 hrs. The absorbance was measured at 540nm using ELISA reader (ELX-800, BioTek Instruments Ltd, USA.). Untreated cells were used as medium control and 0.1% Triton X-100 treated cells served as a positive control.

HIV-1 VSV = format: cell-based, HIV-1 pseudotyped with VSV-G
HIV-1 NL4-3 (wt) = format: cell-based
HIV-1 IIIB [4] = experiment: Anti-HIV activity in biological fluids, HIV-1 IIIB, luciferase; format: cell-based; conditions: TZM-bl luciferase
HIV-1 IIIB and HIV-1 BaL = experiment: Stability in seminal plasma and vaginal fluid (residual anti-HIV activity); format: in vitro ADME; conditions: 35.7 μM, up to 72 hrs
[5] = Circular dichroism spectroscopy; format: physicochemical; conditions: 37°C
Method: CD spectra was performed on a JASCO CD Spectrometer (J-815) at 37 °C using a 5.0-nm bandwidth, 0.1-cm path length, 5-s response time, and a 10-nm/min scanning speed.

[6] = tested on: vaginal/endocervical epithelial cells
HIV-1 NL4-3 = experiment: GFP expression in CEM-GFP cells; conditions: HbAHP-25 prior to infection, day 5 post infection
Method: Supernatants were collected and accumulated p24 levels were determined by sandwich ELISA as per the manufacturer’s protocol (XpressBio, Thurmont, MD, USA). AZT (10nM) was used as positive control for inhibition. For GFP analysis, CEM-GFP cells were observed under fluorescent microscope (Carl Zeiss, Oberkochen, Germany) and photographed using a digital camera (DSC–S75; Sony, Tokyo, Japan). IC50 was defined as the concentration that inhibited 50% of viral activity. The selectivity index (SI) was evaluated as the ratio of CC50 to IC50 (SI = CC50/ IC50).

HIV-1 IIIB and ADA5 = experiment: Time-of-addition assay in TZM-bl cells; conditions: 71.40 μM
Method: Luciferase activity was measured at 48 hrs post treatment using Luminometer (ELx-800, Bio-Tek Instruments, USA). VRC01 (0.1 μM) antibody was used as a positive control.

[7] = 2.2–71.40 μM coated, gp120 100ng/well

CC(C)C[C@H](NC(=O)[C@H](CC(C)C)NC(=O)[C@H](CCCCN)NC(=O)[C@H](CS)NC(=O)[C@H](CC(N)=O)NC(=O)[C@@H](NC(=O)[C@@H]1CCCN1C(=O)[C@H](CC(=O)O)NC(=O)[C@@H](NC(=O)[C@H](CCCNC(=N)N)NC(=O)[C@H](CC(C)C)NC(=O)[C@H](CCCCN)NC(=O)[C@H](Cc1c[nH]cn1)NC(=O)[C@H](C)N)C(C)C)C(C)C)C(=O)N[C@@H](CO)C(=O)N[C@@H](Cc1c[nH]cn1)C(=O)N[C@@H](CS)C(=O)N[C@@H](CC(C)C)C(=O)N[C@@H](CC(C)C)C(=O)N[C@H](C(=O)N[C@H](C(=O)N[C@@H](CC(C)C)C(=O)N[C@@H](C)C(=O)N[C@@H](CCCNC(=N)N)C(=O)N[C@@H](Cc1c[nH]cn1)C(N)=O)[C@@H](C)O)C(C)C [HbAHP-25]
Anti-HIV activity (in words) (HIV-1 IIIB [1]; listed as analogue-1b): showed better anti-HIV activity than analogue-1a and analogue of peptide-3
Anti-HIV activity (in words) (HIV-1 IIIB [1]; listed as peptide analogue-1b): significantly enhanced
Anti-HIV activity (HIV-1 IIIB [1]; class symbols of Table 1, HIV-1 IIIB in H9 cells, p24 (S2, S3 Fig)): ++
Binding to recombinant gp120 of HIV-1 IIIB (gp120 of HIV-1 IIIB; [7]): binds to recombinant gp120 of both HIV-1 IIIB and HIV-1 BaL in a dose dependent manner
Concentration with significant binding to gp120 (gp120 of HIV-1 IIIB; HIV-1 IIIB gp120): above 8.9 μM
Binding to recombinant gp120 of HIV-1 BaL (gp120 of HIV-1 BaL; [7]): binds to recombinant gp120 of both HIV-1 IIIB and HIV-1 BaL in a dose dependent manner
Concentration with significant binding to gp120 (gp120 of HIV-1 BaL; HIV-1 BaL gp120): above 8.9 μM
Rmax (gp120; SPR): 99.7 RU
Chi2 (gp120; fit to 1:1 Langmuir model): 14.7
Shift in fluorescent peak in FL-1A channel [2]: 60.10 ± 4.3%
Shift in fluorescent peak in FL-1A channel (TZM-bl cells): < 3%
Shift in fluorescent peak in FL-1A channel (HeLa cells): < 3%
Inhibition of CD4 binding to gp120 (CD4 binding to gp120): significant reduction in the absorbance
CC50 fold higher than IC50 ([3]; CC50 versus IC50): 5 fold
Cytotoxicity in words ([3]; MTT): not cytotoxic
Dose without adverse effect on viability, relative to IC50 ([3]; dose higher than its IC50): 3 fold
Entry of HIV-1 VSV (HIV-1 VSV): able to enter the cells within one hour even in the presence of HbAHP-25
Infectivity of HIV-1 VSV (HIV-1 VSV): not affected
Infectivity of HIV-1 (wt) (HIV-1 NL4-3 (wt)): inhibited
Change in anti-HIV activity with seminal plasma (HIV-1 IIIB [4]; human seminal plasma): did not observe any significant change
Change in anti-HIV activity with vaginal fluid (HIV-1 IIIB [4]; human vaginal fluid): did not observe any significant change
Loss in anti-HIV activity after pre-incubation with seminal plasma (HIV-1 IIIB and HIV-1 BaL; human seminal plasma): did not observe any significant loss
Loss in anti-HIV activity after pre-incubation with vaginal fluid (HIV-1 IIIB and HIV-1 BaL; human vaginal fluid): did not observe any significant loss
α-helical content ([5]; 10 μM, PBS pH 7 / sodium acetate pH 4, from ellipticity at 222 nm): about 50%
Structure at low pH ([5]; pH 4 versus pH 7, 10 μM): no significant change in its structure at low pH
Effect on lactobacilli (lactobacilli): not inhibitory to lactobacilli
Disruption of tight junctions [6]: does not cause disruptions of tight junctions
Induction of inflammation [6]: does not induce any inflammation
GFP expression (HIV-1 NL4-3): reduced
Anti-HIV activity, during infection (HIV-1 IIIB and ADA5; During: peptide and virus added simultaneously): still significant
Anti-HIV activity, post infection (HIV-1 IIIB and ADA5; Post: peptide 6 hrs after infection): significantly lesser than that shown by the first two groups
Luciferase activity, pre-incubation (HIV-1 IIIB and ADA5; Pre: virus pre-incubated with peptide): significantly lesser luciferase activity
Inhibition, all steps (HIV-1 IIIB and ADA5; peptide at all three steps): Maximum inhibition
